The values that follow come from publication PMC4013053, “Identification of Selective Small Molecule Inhibitors of the Nucleotide-Binding Oligomerization Domain 1 (NOD1) Signaling Pathway” (PLoS ONE, 2014).

For orientation: IC50 means the midpoint of a concentration-inhibition curve. Low readings indicate inhibition by little substance, high ones a need for much substance.

For assay [1], the system named is NOD1-induced type I interferon response. As to the kind of experiment: Tri-DAP stimulated IP-10 secretion in HT-29 cells. It counts as cell-based. The settings on record: Homo sapiens; HT-29, 50 µg/mL Tri-DAP 24 hours. On the procedure:
For assay, cells were seeded into 96 well plates (90,000 cells/well) in DMEM containing 1% FBS and pre-incubated with compounds for 1 hour before addition of either 25 µg/mL Tri-DAP or 1 µg/mL MDP. The level of IL-8 released into medium after 24-hour incubation was determined by HTRF assay (Cisbio) as described above and fluorescence measured on an Envision model 2102 multilabel plate reader (Perkin Elmer). The activity of compounds against NOD1-induced type I interferon response was determined by inhibition of Tri-DAP stimulated IP-10 secretion in HT-29 cells, maintained in the same medium as for HCT116 cells. The HT-29 cells were seeded into 96 well plates (60,000 cells/well) in DMEM with 1% FBS, pre-incubated with compounds for 1 hour and stimulated for 24 hours with 50 µg/mL Tri-DAP. The concentration of IL-8 released into the medium was measured by HTRF as above, IP-10 was measured using the IP-10/CXCL10 Quantikine ELISA kit (R&D Systems), and IFNβ was measured using the MA6000 human IFN-β tissue culture kit (Meso Scale Discovery).

Another assay relates to murine NOD1. As to the kind of experiment: NOD1 stimulated KC (CXCL1) production in murine bone marrow derived macrophages. In kind it is cell-based, mouse. The settings on record: murine BMDM, 25 µg/mL FK156 or Tri-DAP, 24 hours. On the procedure: C57BL/6 mice were obtained from the Jackson Laboratories. Bone marrow was flushed from the femurs and tibiae of adult (∼3 month old) mice with serum-free DMEM medium using a 23-gauge needle and syringe. A fine cell suspension was obtained by gentle aspiration and passage through a […] cell strainer. After centrifugation and re-suspending in DMEM supplemented with 10%HI-FBS, the mononuclear cells obtained from each animal were plated into the central 60 wells of a 96-well plate. After 24 hours, the medium and non-adherent cells were removed and replaced with DMEM with 10%HI-FBS containing 10 ng/mL M-CSF and the cells cultured for 1 week with two additional medium changes. After this time the medium was aspirated and the cells pre-treated with compounds for 1 hour and then stimulated for 24 hours with either 25 µg/mL Tri-DAP or FK156. Each treatment was performed in triplicate wells. The concentration of murine KC (CXCL1) together with 6 other cytokines/chemokines present in conditioned medium was then determined using the murine pro-inflammatory 7-plex assay (Meso Scale Discovery).

For a further assay, the target named is NOD2 (Homo sapiens, UniProt Q9HC29). As to the kind of experiment: MDP-stimulated IL-8 secretion in primary human monocytes. In kind it is cell-based. Also on record: Monocytes were purified from heparinized human whole blood; endogenous in cells; host or cells: primary human blood monocytes. On the procedure: Monocytes were purified from heparinized human whole blood by centrifugation on Ficoll (Histopaque 1077) followed by Percoll gradients. Monocyte purity was >95% by morphological assessment of Wright’s stained cytospins. Cells were seeded at 100,000 per well in 96-well plates in RPMI containing 10%HI-FBS, pre-incubated for 1 hour with compounds, and then stimulated with either 25 µg/mL Tri-DAP or 1 µg/mL MDP. The concentration of IL-8 in medium samples collected after 24-hour treatment was determined by HTRF whereas IL-1β, IL-6 and TNFα were measured using the MS6000 human pro-inflammatory-4 II tissue culture kit (Meso Scale Discovery).
Chain of NOD2 (Q9HC29 whole entry): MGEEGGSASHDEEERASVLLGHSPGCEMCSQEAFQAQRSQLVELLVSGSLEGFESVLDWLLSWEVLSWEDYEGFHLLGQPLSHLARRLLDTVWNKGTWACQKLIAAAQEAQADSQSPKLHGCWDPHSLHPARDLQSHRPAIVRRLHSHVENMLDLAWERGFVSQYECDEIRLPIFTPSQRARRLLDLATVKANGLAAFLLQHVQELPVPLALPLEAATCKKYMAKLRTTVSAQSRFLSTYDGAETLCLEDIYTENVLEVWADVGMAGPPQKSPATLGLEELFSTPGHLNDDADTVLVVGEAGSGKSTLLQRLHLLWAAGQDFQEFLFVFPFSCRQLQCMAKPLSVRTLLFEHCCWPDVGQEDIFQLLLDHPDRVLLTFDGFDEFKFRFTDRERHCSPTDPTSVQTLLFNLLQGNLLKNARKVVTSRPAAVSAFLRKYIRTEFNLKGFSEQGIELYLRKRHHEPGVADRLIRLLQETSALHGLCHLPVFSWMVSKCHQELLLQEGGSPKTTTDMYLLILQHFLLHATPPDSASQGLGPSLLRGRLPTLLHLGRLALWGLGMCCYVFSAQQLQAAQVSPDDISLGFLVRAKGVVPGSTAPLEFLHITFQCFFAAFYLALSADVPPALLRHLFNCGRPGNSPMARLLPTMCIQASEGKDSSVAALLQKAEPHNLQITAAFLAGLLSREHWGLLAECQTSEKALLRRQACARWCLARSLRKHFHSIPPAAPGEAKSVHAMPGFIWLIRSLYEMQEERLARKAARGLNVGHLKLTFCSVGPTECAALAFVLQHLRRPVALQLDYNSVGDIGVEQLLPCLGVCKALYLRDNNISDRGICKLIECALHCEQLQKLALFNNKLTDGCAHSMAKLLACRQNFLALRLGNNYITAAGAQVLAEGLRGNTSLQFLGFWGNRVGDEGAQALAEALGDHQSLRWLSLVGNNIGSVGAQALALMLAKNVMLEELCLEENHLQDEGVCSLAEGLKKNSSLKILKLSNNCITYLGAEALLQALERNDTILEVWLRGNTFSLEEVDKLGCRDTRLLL

The target in the next assay is T1, CAMK1 (Homo sapiens, UniProt Q14012).
T1 construct: purchased Reaction Biology Corp
As to the kind of experiment: Kinase activity panel: CAMK1. It counts as biochemical. The settings on record: 1 µM compound, 10 µM ATP. On the procedure: (§1) The compounds were tested in duplicate at 1 µM with a 20-minute pre-incubation with enzyme followed by addition of 10 µM ATP.

The target of the next assay is T2, EPHB2 (Homo sapiens, UniProt P29323).
T2 construct: purchased Reaction Biology Corp
T2 sequence (P29323 19-1055): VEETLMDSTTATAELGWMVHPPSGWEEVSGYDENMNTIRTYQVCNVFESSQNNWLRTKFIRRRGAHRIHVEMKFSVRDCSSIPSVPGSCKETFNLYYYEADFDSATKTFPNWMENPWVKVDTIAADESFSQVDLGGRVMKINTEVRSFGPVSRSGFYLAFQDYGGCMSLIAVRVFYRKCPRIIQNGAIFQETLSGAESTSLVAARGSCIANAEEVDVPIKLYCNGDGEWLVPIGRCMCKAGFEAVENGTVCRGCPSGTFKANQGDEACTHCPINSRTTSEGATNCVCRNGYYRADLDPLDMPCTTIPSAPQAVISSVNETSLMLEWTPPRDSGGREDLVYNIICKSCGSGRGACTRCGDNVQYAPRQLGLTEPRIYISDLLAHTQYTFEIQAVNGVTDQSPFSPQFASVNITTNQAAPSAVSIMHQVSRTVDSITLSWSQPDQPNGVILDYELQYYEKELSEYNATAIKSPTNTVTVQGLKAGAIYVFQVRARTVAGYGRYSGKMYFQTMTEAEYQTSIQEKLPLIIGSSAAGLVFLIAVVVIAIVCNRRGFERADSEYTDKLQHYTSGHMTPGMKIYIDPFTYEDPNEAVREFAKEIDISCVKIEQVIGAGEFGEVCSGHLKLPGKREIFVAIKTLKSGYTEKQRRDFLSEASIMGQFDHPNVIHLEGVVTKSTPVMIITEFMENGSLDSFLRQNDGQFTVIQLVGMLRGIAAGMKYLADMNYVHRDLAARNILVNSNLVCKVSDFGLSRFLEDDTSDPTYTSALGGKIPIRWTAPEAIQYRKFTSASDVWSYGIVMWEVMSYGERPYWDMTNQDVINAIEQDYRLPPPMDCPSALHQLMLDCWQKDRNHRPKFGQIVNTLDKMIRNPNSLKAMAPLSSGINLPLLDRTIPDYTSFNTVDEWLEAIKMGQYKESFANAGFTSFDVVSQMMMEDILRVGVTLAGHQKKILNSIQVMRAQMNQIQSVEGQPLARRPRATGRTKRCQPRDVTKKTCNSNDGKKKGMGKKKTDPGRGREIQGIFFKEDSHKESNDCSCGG
As to the kind of experiment: Kinase activity panel: EPHB2. It counts as biochemical. The settings on record: 1 µM compound, 10 µM ATP. On the procedure: as §1

Molecules are shown by their SMILES.

Take `Cc1ccc(S(=O)(=O)Nc2cccc(C(=O)Nc3ccc4nc(C)sc4c3)c2)cc1` [Compound 16]: the IC50 in assay [1] was 250 nM. The “inhibition of FK156 or Tri-DAP-stimulated KC production” value with murine NOD1 was “partial inhibition at best”.
`Cc1nc2ccccc2c(=O)n1-c1ccc(Cl)c(NS(=O)(=O)c2ccccc2F)c1` [Compound 22] came in with an IC50 in assay [1] of 80 nM. For the same compound, the “inhibition of FK156 or Tri-DAP-stimulated KC production” value in the assay with murine NOD1 is recorded as “little or no inhibitory activity”. The “effect on MDP induced IL-8 secretion” value on NOD2 was “did not inhibit”.
Turning to `Cc1nc2ccc(NC(=O)c3cccc(NS(=O)(=O)c4ccc(F)cc4)c3)cc2s1` [GSK966], the “decrease of CAMK1 activity” value at CAMK1 was 55%.
Take `Cn1c(=O)[nH]c(=O)c2c1nc(CCSc1ccccc1)n2Cc1ccccc1` [SB711]: the “decrease of EPHB2 activity” value on EPHB2 was 51%.
